“Also recorded” adds a separate entry of the source.
Assays:
apoE3 = assay: ELISA of apoE3 levels in conditioned media of compound-treated mouse cortical astrocyte cells; format: cell-based; details: 10 μM compound, 24 hours, normalized to cell protein, relative to DMSO treated cells
Method: ApoE inhibition can be readily determined by any one of several assays and techniques known to those of ordinary skill in the art, including the enzyme-linked immunosorbant assay (ELISA). In the experimental results shown in Table 2 and FIG. 5, the ELISA assay was carried out on cortical astrocyte cells from mice. Astrocyte cells produce apoE, LDLR and AbcA1 proteins.
The experiments involved treating mouse cortical astrocyte cells with the claimed compounds at 10 μM concentration for an incubation time of 24 hrs. DMSO solvent was used as a negative control, because the compounds were dissolved in DMSO when applied to the cells.
The ELISA technique involves immobilizing an apoE-specific capture antibody to a 96-well plate, addition of sample (conditioned medium from mouse cortical astrocyte cells treated with the compound for 24 hours), and detection of the bound apoE using a second apoE-specific biotinylated antibody and streptavidin-HRP.
The Mabtech ELISA kit detects the presence of the three apoE isoforms: apoE2, apoE3, and apoE4.
To obtain the data shown in Table 2 and FIG. 5, the mouse cortical astrocyte cells were maintained in DMEM medium (Invitrogen) supplemented with 10 mM HEPES, 1 mM sodium pyruvate, 4.5 g/L glucose, 1% penicillin/streptomycin, and 10% fetal bovine growth serum (Invitrogen) at 37° C., with 5% CO2.
The cells (6×10^4 cells/24-well plate) were grown for 1 day in RPMI, followed by a 24 hour equilibration in serum-free Opti-MEM (Life Technologies). Treatments were carried out in triplicate with […] of fresh Opti-MEM containing 10 μM of compound or vehicle (0.1% DMSO) for 24 hours. […] ApoE concentration in the sample was calculated based on a standard curve derived using known amounts of purified apoE (from Biodesign).
The protein levels in the cells in the 24-well plates were measured using BCA Protein Assay Kit (from Pierce) and used to normalize the data. […] Sample apoE3 concentrations were represented relative to the DMSO treated cells.
The bars in FIG. 5 reflect the respective mean level apoE3 in the media for each compound with an indication of one […].

LDLR = assay: SDS-PAGE/Western blot of LDLR expression in E3 astrocyte cells; format: cell-based, mouse; details: 10 μM, 24 hrs, Western blot, FIGS. 6 and 7
Method: Experiments were set up to test whether the claimed compounds increase LDLR expression in cortical astrocyte cells. The experiments involved treating mouse cortical astrocyte cells (E3 astrocyte cells) with the claimed compounds at 10 μM concentration for an incubation time of 24 hrs. DMSO solvent was used as a negative control, because the compounds were dissolved in DMSO when applied to the cells.
(§1) Western blot protocol and analysis was used to determine the LDLR levels in the E3 astrocyte cells. The western blot, otherwise known as a protein immunoblot, is a widely used analytical technique used to detect specific proteins in a cell culture or tissue sample. It uses gel electrophoresis to separate proteins by 3-D structure or denatured proteins by the length of the polypeptide. The proteins are then transferred to a membrane (typically nitrocellulose or PVDF), where they are stained with antibodies specific to the target protein. […] FIGS. 6 and 7 show gel images showing the effects the claimed compounds have on the target proteins. The protein bands show the presence and amount of each target protein present in the media from treated cells (compound numbers shown in the column headers).
(§2) In this case, after the 24-hour culture period, the treated cell media from cells treated with each respective compound were run by electrophoresis on polyacrylamide gel containing sodium dodecyl sulfate (SDS). The proteins from the SDS-PAGE process were then transferred to a nitrocellulose […] and stained.
(§3) FIGS. 6 and 7 show the presence of the following proteins in mouse E3 astrocyte cells: AbcA1, LDLR, ApoE3, and GAPDH. The GAPDH protein serves as the loading control protein for the western blot analysis. For each of the claimed compounds, FIGS. 6 and 7 show three samples run to determine the presence and amount of each indicated protein. The three samples for each treatment compound are indicated by the line under the compound number—the line stretches across three columns of protein bands.
(§4) The E3 astrocyte cells (1.6×10^4 cells/96-well plate) were grown for 1 day in RPMI, followed by a 24 hour equilibration in serum-free Opti-MEM (Life Technologies). Treatments were carried out in triplicate with […] of fresh Opti-MEM containing 10 μM of compound or vehicle (0.1% DMSO) for 24 hours. After the incubation time, the cellular media was collected as samples.
(§5) The collected samples were prepared for SDS-PAGE and western blot analysis by centrifuging and then extracting the protein by TCA-precipitation. The extracted protein was then resuspended in a Tris buffer.
(§6) After incubation and collection, the samples were run on a SDS-polyacrylamide gel (10% SDS). The SDS-polyacrylamide gel comprises the following:
(§7) Each sample was prepared to run on the SDS-polyacrylamide gel. About 20 μL of each sample was prepared to be run in the gel. The samples were prepared comprising the following:
(§8) The SDS-PAGE process was run with SDS-PAGE running buffer (Tris base, glycine, and 10% SDS) at 150 V until the dye front reached the bottom of the gel.
(§9) For the western blot portion of the analysis, the separated protein bands in the gel are then transferred to a nitrocellulose membrane by methods well known in the art. Following the western blot transfer, the blot is rinsed several times with dH2O to remove the salts. After blocking unreacted sites on the nitrocellulose membrane, all protein bands are stained with 0.5% Ponceau S (0.5 g Ponceau S, 1 ml Glacial HAc, 99 ml dH2O) and the target protein antibody.
(§10) The antibodies used for staining AbcA1 were obtained from Novus (NB100-2068). The antibodies used for staining LDLR were obtained from MBL International (JM-3839). The antibodies used for staining intracellular apoE were obtained from Meridian Life Science (K74180B). The antibodies used for staining GAPDH were obtained from Santa Cruz (sc-25778).

AbcA1 = assay: SDS-PAGE/Western blot of AbcA1 expression in E3 astrocyte cells; format: cell-based, mouse; details: 10 μM, 24 hrs, Western blot, FIGS. 6 and 7
Excerpt: as §1, §2, §3
AbcA1 protein plays a key role in regulating cholesterol in biological systems and therefore affects amyloid beta plaque formation. The goal of the biological screen (results shown in FIGS. 6 and 7) was to find compounds that prevent amyloid beta (Aβ) plaque formation, one of the deleterious causes of Alzheimer's Disease.
as §4, §5, §6, §7, §8, §9, §10

Row | SMILES | ApoE3 Levels in Cell Media, Average of Three Tests (apoE3) | ApoE3 Levels in Cell Media, Test 1 (apoE3) | ApoE3 Levels in Cell Media, Test 2 (apoE3) | ApoE3 Levels in Cell Media, Test 3 (apoE3) | LDLR expression (amount of LDLR protein) compared to the DMSO control (LDLR) | AbcA1 expression compared to the DMSO control (AbcA1)
1 | CCN(CC)Cc1ccc2ccccc2c1 [Compound 140] | 90.9673 % of the DMSO control | 91.46 % of the DMSO control | 97.9104 % of the DMSO control | 83.54 % of the DMSO control | increased; also recorded: increasing LDLR expression slightly | increases AbcA1 expression significantly; also recorded: increase
2 | O=S(=O)(c1ccc2ccccc2c1)N1CCOCC1 [Compound 95] | 96.13 % of the DMSO control | 86.87 % of the DMSO control | 92.02 % of the DMSO control | 109.5 % of the DMSO control | increase | 
3 | O=S(=O)(NC1CCCCC1)c1ccc(-c2ccccc2)cc1 [Compound 136] | 89.73 % of the DMSO control | 89.58 % of the DMSO control | 91.2 % of the DMSO control | 88.41 % of the DMSO control | increase | 
4 | O=S(=O)(c1ccc2ccccc2c1)N1CCCC1 [Compound 96] | 118.6531 % of the DMSO control | 104.9618 % of the DMSO control | 132.594 % of the DMSO control | 118.4035 % of the DMSO control | increase | 
5 | CCCCN(CCCC)Cc1ccc2ccccc2c1 [Compound 139] | 74.779 % of the DMSO control | 67.21 % of the DMSO control | 81.69 % of the DMSO control | 75.44 % of the DMSO control | increased | decreases AbcA1 expression significantly; also recorded: decrease
6 | CCC(C)NC(=O)c1ccc2ccccc2c1 (stereo not shown) [Compound 88, naphthalene-2-carboxylic acid sec-butylamide] | 100.678 % of the DMSO control | 104.1856 % of the DMSO control | 95.94 % of the DMSO control | 101.9038 % of the DMSO control | increase | 
7 | CC(C)CNS(=O)(=O)c1ccc(-c2ccccc2)cc1 [Compound 133] | 73.18 % of the DMSO control | 81.61 % of the DMSO control | 72.54 % of the DMSO control | 65.4 % of the DMSO control |  | decrease

Source: patent US10214502B2, “Method of inhibiting apolipoprotein-E expression while increasing expression of at least one of LDL-receptor protein or AbcA1 protein comprising administering a small compound” (California State University, Fresno, priority 2016, dated 2019)
